These results are taken from ChEMBL document CHEMBL1136816, “Synthesis and evaluation of ether and halogenated derivatives of mannopeptimycin glycopeptide antibiotics” (2003).

Format in all cases: functional
The subject of test [1] is Streptococcus sp. Kind of test: In vitro minimum inhibitory concentration against Streptococcus species; 0.5-2.
Test [2] has as its system Enterococcus sp. Kind of test: In vitro minimum inhibitory concentration against Enterococcus species; 4-32.
In test [3] the test system is Staphylococcus aureus. Kind of test: In vitro minimum inhibitory concentration against Staphylococcus aureus; 1-8.
Test [4] has as its system Streptococcus sp. Kind of test: In vitro minimum inhibitory concentration against Streptococcus species; 1-16.
For test [5], the system named is Staphylococcus aureus. Kind of test: In vitro minimum inhibitory concentration against Staphylococcus aureus; 16-32.
The test system of test [6] is Enterococcus sp. Kind of test: In vitro minimum inhibitory concentration against Enterococcus species; 16-32.
Test [7] deals with Staphylococcus aureus. Kind of test: In vitro minimum inhibitory concentration against Staphylococcus aureus.
Test [8] concerns Enterococcus sp. Kind of test: In vitro minimum inhibitory concentration against Enterococcus species; 2-16.
Test [9] concerns Staphylococcus aureus. Kind of test: In vitro minimum inhibitory concentration against Staphylococcus aureus; 1-4.
Test [10] concerns Streptococcus sp. Kind of test: In vitro minimum inhibitory concentration against Streptococcus species; </=0.12-0.5.
Test [11] relates to Streptococcus sp. Kind of test: In vitro minimum inhibitory concentration against Streptococcus species; </=0.06-0.12.
The subject of test [12] is Enterococcus sp. Kind of test: In vitro minimum inhibitory concentration against Enterococcus species; 2-4.
Test [13] has as its system Staphylococcus aureus. Kind of test: In vitro minimum inhibitory concentration against Staphylococcus aureus; 2-4.
Test [14] has as its system Staphylococcus aureus. Kind of test: In vitro minimum inhibitory concentration against Staphylococcus aureus; 2-8.
Test [15] concerns Staphylococcus aureus. Kind of test: In vitro minimum inhibitory concentration against Staphylococcus aureus; 0.5-2.
Test [16] concerns Streptococcus sp. Kind of test: In vitro minimum inhibitory concentration against Streptococcus species.

Each structure is given as a SMILES string. In brackets after ≈: the same amount, converted by molar mass.

What is called MIC is the lowest concentration found to suppress growth. As for `CCOc1cc(COCC2O[C@H](O[C@H]3[C@H](O)[C@H](O)[C@@H](Oc4ccc(C[C@H]5NC(=O)[C@H]([C@@H](C)c6ccccc6)NC(=O)CNC(=O)[C@H](CO)NC(=O)[C@@H]([C@@H](O)[C@@H]6CN=C(N)N6[C@H]6O[C@H](CO)[C@@H](O)[C@H](O)[C@@H]6O)NC(=O)[C@H]([C@@H](O)[C@@H]6CN=C(N)N6)NC5=O)cc4)O[C@@H]3CO)[C@@H](O)[C@@H](O)[C@@H]2O)ccc1OC` (some centres undefined), the figures for the minimal inhibitory concentration (MIC) in [1], in test [2] and in [3] were 0.5 mg/L (≈ 0.343 µM), 4 mg/L (≈ 2.74 µM) and 1 mg/L (≈ 0.685 µM), respectively.

On to `C[C@@H](c1ccccc1)[C@@H]1NC(=O)CNC(=O)[C@H](CO)NC(=O)[C@@H]([C@@H](O)[C@@H]2CN=C(N)N2[C@H]2O[C@H](CO)[C@@H](O)[C@H](O)[C@@H]2O)NC(=O)[C@H]([C@@H](O)[C@@H]2CN=C(N)N2)NC(=O)[C@@H](Cc2ccc(O[C@H]3O[C@H](CO)[C@@H](O[C@H]4O[C@H](CO)[C@@H](OC/C=C/c5ccc(N(C)C)cc5)[C@H](O)[C@@H]4O)[C@H](O)[C@@H]3O)cc2)NC1=O`, for which the MIC is 1 mg/L (≈ 0.688 µM) in test [4], 16 mg/L (≈ 11 µM) in [5] and 16 mg/L (≈ 11 µM) in test [6].

In the case of `COc1ccc(COC[C@H]2O[C@H](O[C@H]3[C@H](O)[C@H](O)[C@@H](Oc4ccc(C[C@H]5NC(=O)[C@H]([C@@H](C)c6ccccc6)NC(=O)CNC(=O)[C@H](CO)NC(=O)[C@@H]([C@@H](O)[C@@H]6CN=C(N)N6[C@H]6O[C@H](CO)[C@@H](O)[C@H](O)[C@@H]6O)NC(=O)[C@H]([C@@H](O)[C@@H]6CN=C(N)N6)NC5=O)cc4)O[C@@H]3CO)[C@@H](O)[C@@H](O)[C@@H]2O)cc1`, the minimal inhibitory concentration (MIC) in test [1] is 0.5 mg/L (≈ 0.353 µM); in test [2], 4 mg/L (≈ 2.83 µM); in [7], 4 mg/L (≈ 2.83 µM).

Take `COc1ccc(COC[C@H]2O[C@H](O[C@H]3[C@H](O)[C@H](O)[C@@H](Oc4ccc(C[C@H]5NC(=O)[C@H]([C@@H](C)c6ccccc6)NC(=O)CNC(=O)[C@H](CO)NC(=O)[C@@H]([C@@H](O)[C@@H]6CN=C(N)N6[C@H]6O[C@H](CO)[C@@H](O)[C@H](O)[C@@H]6O)NC(=O)[C@H]([C@@H](O)[C@@H]6CN=C(N)N6)NC5=O)cc4)O[C@@H]3CO)[C@@H](O)[C@@H](O)[C@@H]2O)c2ccccc12`: the MIC in [8] is 2 mg/L (≈ 1.36 µM); in test [9], 1 mg/L (≈ 0.682 µM); in test [10], at most 0.12 mg/L.

Turning to `C[C@@H](c1ccccc1)[C@@H]1NC(=O)CNC(=O)[C@H](CO)NC(=O)[C@@H]([C@@H](O)[C@@H]2CN=C(N)N2[C@H]2O[C@H](CO)[C@@H](O)[C@H](O)[C@@H]2O)NC(=O)[C@H]([C@@H](O)[C@@H]2CN=C(N)N2)NC(=O)[C@@H](Cc2ccc(O[C@H]3O[C@H](CO)[C@@H](O[C@H]4O[C@H](COCc5ccc(Oc6ccccc6)cc5)[C@@H](O)[C@H](O)[C@@H]4O)[C@H](O)[C@@H]3O)cc2)NC1=O`, the results for the MIC in test [11], in test [12] and in [13] were at most 0.06 mg/L, 2 mg/L (≈ 1.35 µM) and 2 mg/L (≈ 1.35 µM), respectively.

Regarding `COc1ccc(COC[C@H]2O[C@H](O[C@H]3[C@H](O)[C@H](O)[C@@H](Oc4ccc(C[C@H]5NC(=O)[C@H]([C@@H](C)c6ccccc6)NC(=O)CNC(=O)[C@H](CO)NC(=O)[C@@H]([C@@H](O)[C@@H]6CN=C(N)N6[C@H]6O[C@H](CO)[C@@H](O)[C@H](O)[C@@H]6O)NC(=O)[C@H]([C@@H](O)[C@@H]6CN=C(N)N6)NC5=O)cc4)O[C@@H]3CO)[C@@H](O)[C@@H](O)[C@@H]2O)cc1F`, the MIC in test [1] was found to be 0.5 mg/L (≈ 0.349 µM); in [2] it was 4 mg/L (≈ 2.79 µM); in test [14], 2 mg/L (≈ 1.4 µM).

Regarding `C[C@@H](c1ccccc1)[C@@H]1NC(=O)CNC(=O)[C@H](CO)NC(=O)[C@@H]([C@@H](O)[C@@H]2CN=C(N)N2[C@H]2O[C@H](CO)[C@@H](O)[C@H](O)[C@@H]2O)NC(=O)[C@H]([C@@H](O)[C@@H]2CN=C(N)N2)NC(=O)[C@@H](Cc2ccc(O[C@H]3O[C@H](CO)[C@@H](O[C@H]4O[C@H](CO)[C@@H](OCc5ccc(OCc6ccccc6)cc5)[C@H](O)[C@@H]4O)[C@H](O)[C@@H]3O)cc2)NC1=O`, the MIC in [15] was 0.5 mg/L (≈ 0.335 µM); in test [12] it was 2 mg/L (≈ 1.34 µM); in test [16], at most 0.06 mg/L.

As for `C[C@@H](c1ccccc1)[C@@H]1NC(=O)CNC(=O)[C@H](CO)NC(=O)[C@@H]([C@@H](O)[C@@H]2CN=C(N)N2[C@H]2O[C@H](CO)[C@@H](O)[C@H](O)[C@@H]2O)NC(=O)[C@H]([C@@H](O)[C@@H]2CN=C(N)N2)NC(=O)[C@@H](Cc2ccc(O[C@H]3O[C@H](CO)[C@@H](O[C@H]4O[C@H](COCC=C(c5ccccc5)c5ccccc5)[C@@H](O)[C@H](O)[C@@H]4O)[C@H](O)[C@@H]3O)cc2)NC1=O`, the MIC in test [12] was 2 mg/L (≈ 1.34 µM); in test [7] it was 2 mg/L (≈ 1.34 µM); in test [16], at most 0.06 mg/L.
